Measured values from US20250034139A1, “AMINE COMPOUNDS HAVING ANTI-INFLAMMATORY, ANTIFUNGAL, ANTIPARASITIC, AND ANTICANCER ACTIVITY” (PHARMA CINQ, LLC, priority 2013, published 2025).

Legend:
[1] = system: THP-1 cells; test: Example D: LPS-triggered THP-1 cell death assay, acute/5-hour and chronic/48-hour; assay type: cell-based, Human; settings: 10 ng/ml LPS, 0.1 μM test compound, 48 hours
Description: Compounds of the invention were tested at 0.1 μM versus AC in the LPS-triggered THP-1 cell death assay. Both acute/5-hour and chronic/48-hour phases of cell death were assessed. Compounds were screened in batches with DMSO as the negative control and AC as the high activity control.

[2] = system: 4T1 murine breast cancer cells; test: Example S: in vitro anticancer screen, 4T1 cells, Wst1; assay type: cell-based, mouse; settings: Mus musculus, 4T1, 18 h, 18 hr, Wst1; for viability at 1 µM: read-out: 4T1 1 μM, percent of cancer cell survival relative to vehicle treated cells; for viability at 5 µM: read-out: 4T1 5 μM, percent of cancer cell survival relative to vehicle treated cells
In short: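 4T1 cells seeded at 1×10^4/well were exposed to compound at 1 μM or 5 μM for 18 hr after plating. Wst1 tetrazolium dye was then added for about 2 hr and absorbance read at 450 nm (reference 630 nm). Values are percent survival relative to vehicle-treated cells.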

[3] = system: PC3 human prostate cancer cells; test: Example S: in vitro anticancer screen, PC-3 cells, Wst1; assay type: cell-based; settings: Homo sapiens, PC-3, approximately 20 hours, Wst1, read-out: PC-3, percent of cancer cell survival relative to vehicle treated cells
In short: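 PC-3 cells, 2×10^4 cells/well, exposed ~20 h to vehicle or compound at 0.4, 0.5 or 2.5 μM as specified per compound. Wst1 dye added for 2 h; absorbance 450 nm (reference 630 nm), triplicates. Values are percent cell survival versus vehicle-treated cells.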

[4] = system: PC-3 prostate cancer cells; test: Example T: sensitisation of PC-3 cells to doxorubicin, oxaliplatin, paclitaxel or vincristine, Wst1; assay type: cell-based, human; settings: PC-3 cells, 72 hours; for viability at 1.5 µM / viability at 0.4 µM / viability at 2.5 µM / viability at 0.5 µM: Homo sapiens, Wst1, vehicle = 100, read-out: No Chemo: percent cell survival; for viability at 1.5 µM: compound 1.5 μM alone; for Doxorubicin 3.5 μM: percent cell survival / Oxaliplatin 100 μM: percent cell survival / Paclitaxel 50 μM: percent cell survival / Vincristine 100 nM: percent cell survival: chemotherapy agent alone normalized to 100%; for viability at 0.4 µM: compound 0.4 μM alone; for viability at 2.5 µM: compound 2.5 μM alone; for viability at 0.5 µM: compound 0.5 μM alone
[5] = compound 1.5 μM + doxorubicin 3.5 μM
[6] = compound 1.5 μM + oxaliplatin 100 μM
[7] = compound 1.5 μM + paclitaxel 50 μM
[8] = compound 1.5 μM + vincristine 100 nM
[9] = compound 0.4 μM + doxorubicin 3.5 μM
[10] = compound 0.4 μM + oxaliplatin 100 μM
[11] = compound 0.4 μM + paclitaxel 50 μM
[12] = compound 0.4 μM + vincristine 100 nM
[13] = compound 2.5 μM + doxorubicin 3.5 μM
[14] = compound 2.5 μM + oxaliplatin 100 μM
[15] = compound 2.5 μM + paclitaxel 50 μM
[16] = compound 2.5 μM + vincristine 100 nM
[17] = compound 0.5 μM + doxorubicin 3.5 μM
[18] = compound 0.5 μM + oxaliplatin 100 μM
[19] = compound 0.5 μM + paclitaxel 50 μM
[20] = compound 0.5 μM + vincristine 100 nM

| Structure (SMILES) | Viable cell percent change, Chronic/48-hour, Mean [1] [%] | viability at 1 µM [2] [%] | viability at 5 µM [2] [%] | viability at 0.4 µM [3] [%] | viability at 0.4 µM [4] [%] | Doxorubicin 3.5 μM: percent cell survival [4, 9] [%] | Oxaliplatin 100 μM: percent cell survival [4, 10] [%] | Paclitaxel 50 μM: percent cell survival [4, 11] [%] | Vincristine 100 nM: percent cell survival [4, 12] [%] | also measured |
| --- | --- | --- | --- | --- | --- | --- | --- | --- | --- | --- |
| CCCCCCOCCCCCCCCn1cnc2cnc3ccccc3c21 [GB, 1-[8-(Hexyloxy)octyl]-1H-imidazo[4,5-c]quinoline] | 19.29 | 97 | 22.6 | – | – | – | – | – | – | viability at 1.5 µM [3]: 36.4%; viability at 1.5 µM [4]: 36.4%; Doxorubicin 3.5 μM: percent cell survival [4, 5]: 52.8%; Oxaliplatin 100 μM: percent cell survival [4, 6]: 76.2%; Paclitaxel 50 μM: percent cell survival [4, 7]: 24%; Vincristine 100 nM: percent cell survival [4, 8]: 38.8% |
| COc1ccc(C(=O)NCCCCCCCCNc2ccnc3ccccc23)cc1 [EA, 4-Methoxy-N-[8-(quinolin-4-ylamino)octyl]benzamide] | 73.48 | 31.1 | 36.8 | 108 | 108 | 87.8 | 89 | 73.5 | 84.5 | – |
| CCCCCCOc1ccccc1Nc1ccnc2ccccc12 [DP, N-[2-(Hexyloxy)phenyl]quinolin-4-amine] | 42.36 | 72.5 | 25.4 | – | – | – | – | – | – | viability at 2.5 µM [3]: 37.5%; viability at 2.5 µM [4]: 37.5%; Doxorubicin 3.5 μM: percent cell survival [4, 13]: 65.3%; Oxaliplatin 100 μM: percent cell survival [4, 14]: 77.4%; Paclitaxel 50 μM: percent cell survival [4, 15]: 64.6%; Vincristine 100 nM: percent cell survival [4, 16]: 74.1% |
| CCCCCCOc1ccc(Nc2ccnc3ccccc23)cc1 [DL, N-[4-(Hexyloxy)phenyl]quinolin-4-amine] | 61.01 | 70.9 | 21 | – | – | – | – | – | – | viability at 2.5 µM [3]: 43%; viability at 2.5 µM [4]: 43%; Doxorubicin 3.5 μM: percent cell survival [4, 13]: 193.5%; Oxaliplatin 100 μM: percent cell survival [4, 14]: 172.6%; Paclitaxel 50 μM: percent cell survival [4, 15]: 164.8%; Vincristine 100 nM: percent cell survival [4, 16]: 164.9% |
| CC(C)(C)c1ccc(OCCCCCCCCNc2ccnc3ccccc23)cc1 [DA, N-[8-(4-tert-Butylphenoxy)octyl]quinolin-4-amine] | 43.55 | 17.6 | 18.4 | 95.7 | 95.7 | 82.8 | 91.3 | 100.8 | 19.1 | – |
| CCCCCCOc1ccccc1CNc1ccnc2ccccc12 [DS, N-[2-(Hexyloxy)benzyl]quinolin-4-amine] | 56.67 | 35.6 | 25.5 | 70 | 70 | 86.4 | 97 | 97.1 | 98.6 | – |
| c1ccc(CCNc2ccnc3ccccc23)cc1 [DR, N-Phenethylquinolin-4-amine] | 27.12 | 77.9 | 27.2 | – | – | – | – | – | – | viability at 2.5 µM [3]: 31.5%; viability at 2.5 µM [4]: 31.5%; Doxorubicin 3.5 μM: percent cell survival [4, 13]: 59.9%; Oxaliplatin 100 μM: percent cell survival [4, 14]: 68.7%; Paclitaxel 50 μM: percent cell survival [4, 15]: 49.2%; Vincristine 100 nM: percent cell survival [4, 16]: 35.5% |
| O=C(NCCCCCCCCNc1ccnc2ccccc12)c1ccccn1 [EE, N-[8-(Quinolin-4-ylamino)octyl]picolinamide] | 24.32 | 24 | 18.1 | 34 | 34 | 66.4 | 70.8 | 45.3 | 47.1 | – |
| CCCCCCOc1cccc(OCCNc2ccnc3ccccc23)c1 [CW, N-{2-[3-(Hexyloxy)phenoxy]ethyl}quinolin-4-amine] | 43.71 | 25.1 | 18.4 | 98.5 | 98.5 | 31.9 | 26.6 | 55.9 | 69.4 | – |
| CCCCOCCCCCCCCCCn1cnc2cnc3ccccc3c21 [FK, 1-(10-Butoxydecyl)-1H-imidazo[4,5-c]quinoline] | 16.57 | 23.6 | 15.6 | – | – | – | – | – | – | viability at 0.5 µM [3]: 35.5%; viability at 0.5 µM [4]: 35.5%; Doxorubicin 3.5 μM: percent cell survival [4, 17]: 47.4%; Oxaliplatin 100 μM: percent cell survival [4, 18]: 62%; Paclitaxel 50 μM: percent cell survival [4, 19]: 18%; Vincristine 100 nM: percent cell survival [4, 20]: 39% |
| CCCCCCOc1cccc(Nc2ccnc3ccccc23)c1 [DN, N-[3-(Hexyloxy)phenyl]quinolin-4-amine] | 77.15 | 104 | 56.7 | – | – | – | – | – | – | viability at 2.5 µM [3]: 31.7%; viability at 2.5 µM [4]: 31.7%; Doxorubicin 3.5 μM: percent cell survival [4, 13]: 64.1%; Oxaliplatin 100 μM: percent cell survival [4, 14]: 78%; Paclitaxel 50 μM: percent cell survival [4, 15]: 64.7%; Vincristine 100 nM: percent cell survival [4, 16]: 72.3% |
| CCCCCCCCOCCCCCCn1cnc2cnc3ccccc3c21 [FI, 1-[6-(Octyloxy)hexyl]-1H-imidazo[4,5-c]quinoline] | 12.70 | 26.5 | 26.7 | – | – | – | – | – | – | viability at 0.5 µM [3]: 35.2%; viability at 0.5 µM [4]: 35.2%; Doxorubicin 3.5 μM: percent cell survival [4, 17]: 79.8%; Oxaliplatin 100 μM: percent cell survival [4, 18]: 91.4%; Paclitaxel 50 μM: percent cell survival [4, 19]: 84%; Vincristine 100 nM: percent cell survival [4, 20]: 73.7% |
| COCCCCCCCCNc1cc[n+](C)cc1.[I-] [FL, 4-(8-Methoxyoctylamino)-1-methylpyridinium iodide] | 38.59 | 27.7 | 21.4 | 41.2 | 41.2 | 81.3 | 87.9 | 92.8 | 69.7 | – |
| CCCCCCCCCCOCCCCn1cnc2cnc3ccccc3c21 [GA, 1-[4-(Decyloxy)butyl]-1H-imidazo[4,5-c]quinoline] | 16.51 | 97.1 | 35.5 | – | – | – | – | – | – | viability at 1.5 µM [3]: 41.3%; viability at 1.5 µM [4]: 41.3%; Doxorubicin 3.5 μM: percent cell survival [4, 5]: 82.2%; Oxaliplatin 100 μM: percent cell survival [4, 6]: 91.8%; Paclitaxel 50 μM: percent cell survival [4, 7]: 109.2%; Vincristine 100 nM: percent cell survival [4, 8]: 84.2% |
| O=C(NCCCCCCCCNc1ccnc2ccccc12)c1ccncc1 [EG, N-[8-(Quinolin-4-ylamino)octyl]isonicotinamide] | 60.59 | 34.7 | 27.7 | 92.2 | 92.2 | 91.3 | 96.2 | 95.3 | 88.5 | – |
